Data as given in patent publication US10981932B2, “Macrocyclic indole derivatives” (Bayer Aktiengesellschaft, priority 2016, dated 2021).

Key:
[1] = target: MCL-1 (Homo sapiens, UniProt Q07820); experiment: Protein-protein interaction assay MCL-1/Noxa BH3 peptide (MCL-1 assay), TR-FRET; type: binding; conditions: MBP-MCL-1 / Noxa BH3-derived peptide, median
Procedure, shortened: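 Steady-state competition, MCL-1/Noxa BH3, TR-FRET readout; 1 nM MBP-MCL-1, 11-point dose series 0.1 nM–20 μM; overnight 4 °C equilibration; 4-parameter IC50.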

[2] = test system: SUDHL10; experiment: Induction of caspase-3/7 activity (Caspase-Glo 3/7), SUDHL10; type: cell-based; conditions: caspase-3/7 induction, SUDHL10 cells, 3 h treatment; median
Procedure, shortened: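 A 3 h, 37 °C compound incubation precedes the Caspase-Glo 3/7 read. After subtracting medium-only signal, EC50s are fitted against the reference compound's maximal caspase induction.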

[3] = test system: SUDHL5; experiment: Induction of cytotoxicity (CellTiter-Glo, 5 h), SUDHL5; conditions: read-out: Cytotox SUDHL5 [M] (median); SUDHL5 cells, cytotoxicity induction, CellTiter-Glo, 5 h incubation, median
[4] = test system: SUDHL10; experiment: Induction of cytotoxicity (CellTiter-Glo, 5 h), SUDHL10; conditions: read-out: Cytotox SUDHL10 [M] (median); SUDHL10 cells, cytotoxicity induction, CellTiter-Glo, 5 h incubation, median

MCL-1, sequence (Q07820 whole entry): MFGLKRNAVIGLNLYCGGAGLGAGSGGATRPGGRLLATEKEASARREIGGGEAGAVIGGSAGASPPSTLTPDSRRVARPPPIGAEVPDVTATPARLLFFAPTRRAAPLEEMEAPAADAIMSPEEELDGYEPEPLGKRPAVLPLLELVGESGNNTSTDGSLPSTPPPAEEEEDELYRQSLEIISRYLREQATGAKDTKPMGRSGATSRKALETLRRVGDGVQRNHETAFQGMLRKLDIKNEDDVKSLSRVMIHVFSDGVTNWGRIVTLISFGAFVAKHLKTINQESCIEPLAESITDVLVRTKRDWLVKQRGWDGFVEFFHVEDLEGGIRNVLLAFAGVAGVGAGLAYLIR

SMILES: Cc1c2c(nn1C)COCCCCn1c(C(=O)O)c(CCCOc3cccc4ccccc34)c3cccc-2c31 (single isomer, unassigned; enantiomer 1) [Example 1-37, (+)-2,3-dimethyl-7-[3-(naphthalen-1-yloxy)propyl]-2,10,11,12,13,15-hexahydropyrazolo[4′,3′:9,10][1,6]oxazacycloundecino[8,7,6-hi]indole-8-carboxylic Acid (Enantiomer 1)]
- IC50 [1]: 1.72 nM
- EC50 [2]: 3840 nM
- IC50 [3]: 1.92e-06 M
- IC50 [4]: 8.41e-06 M
